Experimental data from patent US6514979B1, “Synergistic combinations of guanosine analog reverse transcriptase inhibitors and inosine monophosphate dehydrogenese inhibitors and uses therefor” (University of Maryland Biotechnology Institute, priority 1999, dated 2003).
Structures can show the parent of a compound that is named as a salt. Where two headings read alike, the source gives them in different places.

Key:
[1] = test system: HIV reverse transcriptase M184V; settings: cited from earlier work
HIV-1 IIIb = experiment: p24 production by HIV-1 IIIb infected PHA-stimulated PBMCs, Greco interaction model; format: cell-based; settings: HIV IIIb in PBMCs; for IC50: p24 day 7, Greco model estimate
Procedure: (§1) Primary PBMCs were separated from whole blood of HIV seronegative donors by density centrifugation over Ficoll-Hypaque (Sigma). The culture medium consisted of RPMI supplemented with 10% fetal bovine serum (FBS), 2 mM glutamine and penicillin/streptomycin (Gibco, Grand Island, N.Y.). For infection studies involving PBMCs, cells were stimulated with 10 μg/mL phytohemagglutinin (PHA; Boehringer Mannheim, Indianapolis, Ind.) and cultured for 3 days. Stimulated PBMCs were infected by incubation with virus at a multiplicity of infection of 1000 TCID50/d10^6 PBMC for 2 hours. PBMC were then washed three times with PBS and cultured in 5% CO2 at 37° C, in RPMI/10% FBS supplemented with 10 units/mL IL-2 (Boehringer Mannheim) and drugs as appropriate. PBMC were seeded in 96-well flat-bottom plates at a density of 2×10^5 PBMC/200 μL. Following three days of culture, half of the medium was replaced with fresh medium containing IL-2 and drugs. After 7 days of culture HIV-1 p24 production in the culture supernatant was assayed by ELISA (Coulter, Hialeah, Fla.).
Additive antiviral effect was analyzed according to the definition of Loewe, using the interaction model of Greco et al. as was described above. This model is fully parametric, and point estimates of the model parameters are obtained in a traditional weighted, nonlinear least-squares approach. The model follows the equation below: [formula]
where α (alpha) is the synergism-antagonism interaction parameter, IC50.1 and IC50.2 are the drug concentrations resulting in 50% inhibition for drug 1 and drug 2, respectively; D1 and D2 are the concentration of drugs tested; Econ is the control effect in the absence of either drug, E is the observed effect , and m 1 and m 2 are the slope parameters for each drug. If the estimate of α is zero, the drug combination is additive; if α is positive, the interaction is synergistic; if α is negative, the interaction is antagonistic. […] That is, if the 95% confidence interval encompasses zero, the interaction is additive. […] This model was implemented using the ADAPT II programs (D'Argenio D. Z, Schumitzky A. ADAPT II: a program package for simulation identification and optimal experimental design. 1990. Biomedical Simulations Resource, Univ. Of Southern California, Los Angeles). Each drug combination was tested in triplicate so as to obtain an estimate of the variance of the effect at different drug concentration combinations.
The combined effect of abacavir and MA was examined in PBMC culture systems. PBMCs from a seronegative donor were stimulated with PHA and infected with the T-cell tropic isolate HIV-1 IIIb. At the clinically utilized dose (600 mg/day) of abacavir steady state peak serum levels are […] (4.47 μM; e.g.,see Ziagen package insert. Glaxo Wellcome, Inc., Research Triangle Park, N.C.). After a single 1000 mg dose of MA in a healthy individual, the mean peak serum level is 56.5 μM. Therefore, infected cells were cultured in the presence of abacavir from 0 to 4 μM, and in the presence of 0 to 1 μM of MA. On day 7 after infection the number of viable cells was determined by MTT assay (Boehringer Mannheim), and p24 antigen in the culture supernatant was measured.
The interaction of abacavir and MA in the suppression of HIV IIIb replication in PBMCs was analyzed using the Greco model as described above. Each data point was determined in triplicate. Each observation was weighted by the inverse of the observation variance. These parameters and their 95% confidence bounds are shown below: […]

IL-2 receptor signaling = settings: high concentrations; cited from earlier work
HIV-1 [2] = settings: 1-10 μM; cited from earlier work
[3] = single 1000 mg dose in a healthy individual; cited from earlier work
HIV-1 [4] = experiment: combined effects of MA and available nucleoside analogs (Table 2); format: cell-based
Excerpt: Although MA directly depletes cellular guanosine pools through inhibition of IMPDH, this may result secondarily in perturbations of other cellular enzyme activities. Such perturbations could result in beneficial or detrimental therapeutic effects. The combined effects of MA and available nucleoside analogs are described in Table 2: […]

cellular guanosine pools = experiment: addition of deoxynucleosides to the culture media; format: cell-based; settings: not shown
Excerpt: MA may synergize with abacavir via depletion of cellular guanosine pools, effectively increasing the intracellular concentration of abacavir. However, MA may also act via a general inhibitory effect on T lymphocyte proliferation, as has been hypothesized in the case of hydroxyurea (Lori F., Malykh A. G., Foli A., Maserati R., De Antoni A., Minoli L., Padrini D., Degli Antoni A., Barchi E., Jessen H., Wainberg M. A., Gallo R. C., Lisziewicz J. Combination of a drug targeting the cell with a drug targeting the virus controls human immunodeficiency virus type 1 resistance. AIDS Res Hum Retroviruses 1997; 13(16): 1403-9; De Boer R. J., Boucher C. A., Perelson A. S. Target cell availability and the successful suppression of HIV by hydroxyurea and didanosine. AIDS 1998; 12(13): 1567-70).

neutrophil function = settings: concentrations of up to 10 μM; cited from earlier work
PBMC = experiment: MTT cell proliferation assay of PBMC cultures; settings: 0.5 μM MA
Procedure: Cellular proliferation in culture in the presence or absence of MA and abacavir was measured using a commercial MMT cell proliferation assay, as per the manufacturer's instructions (Boehringer Mannheim).

[5] = molecular target: inosine monophosphate dehydrogenase (IMPDH); settings: literature values; read-out: Ki for IMPDH inhibition; cited from earlier work
Type II isoform of IMPDH = Type II isoform of IMPDH (Homo sapiens, UniProt P12268); settings: stimulated lymphocytes isoform; cited from earlier work
Wild-type HIV = experiment: replication of wild-type HIV-1 in PBMCs, day 7 p24; format: cell-based; settings: Human immunodeficiency virus 1, PBMC; 4 μM abacavir
Procedure: as §1

HIV-1 [6] = settings: monotherapy; cited from earlier work
[7] = test system: resistant HIV encoding M184V; experiment: replication of M184V mutant HIV-1 in PBMCs, day 7 p24; format: cell-based; settings: Human immunodeficiency virus 1, PBMC, read-out: inhibition of resistant HIV encoding M184V
Procedure: as §1

Nc1ccn([C@@H]2CS[C@H](CO)O2)c(=O)n1 (relative stereo) [3TC, (2R,cis)4-amino-1-(2-hydroxymethyl-1,3-oxathiolan-5-yl)-(1H)-pyrimidin-2-one]
resistance conferred by M184V [1]: high level resistance

COc1c(C)c2c(c(O)c1C/C=C(\C)CCC(=O)OCCN1CCOCC1)C(=O)OC2 [MA, 2-morpholinoethyl ester of mycophenolic acid]
m MA (slope parameter) (HIV-1 IIIb; Greco model estimate): 1.90 | IC50 (HIV-1 IIIb; read-out: IC50 MA): 110 nM | IC50 (HIV-1 IIIb; Human immunodeficiency virus 1, IIIB, PBMC, 168 h, read-out: IC50 MA): 100 nM | effect on IL-2 receptor signaling (IL-2 receptor signaling): do not disrupt IL-2 receptor signaling | effect on replication of HIV-1 in vitro (HIV-1 [2]): inhibit ed the replication | mean peak serum level [3]: 56.5 µM | antiviral effect of MA alone (HIV-1 [4]; 0.125 μM MA): 1.3 | antiviral effect of MA alone (HIV-1 [4]; 0.5 μM MA): 9.3 | inhibitory effect of MA after addition of deoxyadenosine (cellular guanosine pools): no effect | inhibitory effect of MA after addition of deoxyguanosine (cellular guanosine pools): ablated the inhibitory effect | effect on neutrophil function (neutrophil function): do not inhibit neutrophil function | antiproliferative effect (PBMC): modest antiproliferative effect

COc1c(C)c2c(c(O)c1C/C=C(\C)CCC(=O)O)C(=O)OC2 [Mycophenolic acid]
Ki [5]: 2 to 10 nM | sensitivity of Type II isoform versus the isoform predominant in other cell lineages (Type II isoform of IMPDH): four times more sensitive

Nc1nc(NC2CC2)c2ncn([C@H]3C=C[C@@H](CO)C3)c2n1 [abacavir, (1S,cis)-4-[2-amino-6-(cyclopropylamino)-9H-purin-9-yl]-2-cyclopentene-1-methanol sulfate]
inhibition at 4 µM (Wild-type HIV): 98% | drop in plasma HIV-1 RNA (HIV-1 [6]): 1.55 log | m abacavir (slope parameter) (HIV-1 IIIb; Greco model estimate): 0.70 | IC50 (HIV-1 IIIb; read-out: IC50 abacavir): 630 nM | IC50 (HIV-1 IIIb; Human immunodeficiency virus 1, IIIB, PBMC, 168 h, read-out: IC50 abacavir): 626 nM | antiviral effect of nucleoside analog alone (HIV-1 [4]; 2 μM): 2.7 | inhibition at 4 µM [7]: 53%

OC[C@@H]1CC[C@H](n2cnc3c(O)ncnc32)O1 [didanosine, 2′,3′-dideoxyinosine]
antiviral effect of nucleoside analog alone (HIV-1 [4]; concentration not given): 11

Cc1cn([C@H]2C=C[C@@H](CO)O2)c(=O)[nH]c1=O [stavudine, 2′,3′-dihydro-3′-deoxythymidine]
antiviral effect of nucleoside analog alone (HIV-1 [4]; 2 μM): 115

Nc1ccn([C@H]2CC[C@@H](CO)O2)c(=O)n1 [zalcitibine, 2′,3′-dideoxycytidine]
antiviral effect of nucleoside analog alone (HIV-1 [4]; concentration not given): 3.9

Cc1cn([C@H]2C[C@H](N=[N+]=[N-])[C@@H](CO)O2)c(=O)[nH]c1=O [zidovudine, 3′-azido-3′-deoxythymidine]
antiviral effect of nucleoside analog alone (HIV-1 [4]; concentration not given): 84
